Data on two compounds can be found in patent publication US20240008491A1, “PESTICIDE COMPOSITION FOR C[…] CROWN ROT AND APPLICATION” (priority 2022, published 2024).

This experiment deals with wheat crown rot. The experiment in a line: indoor toxicity test (growth rate method). In kind it is cell-based. The note with it: toxicity to wheat crown rot. Here is the method:
The method of combining indoor toxicity test and field experiment is adopted.
First of all, co-toxicity coefficients of the complex pesticide of different proportions to wheat crown rot are obtained through indoor toxicity test (growth rate method); and then, the control effect is determined through field efficacy test, and the formula proportion and optimal application amount of the complex pesticide are determined.

In brackets after ≈: the same amount, converted by molar mass.

As a reminder, the EC50 is the concentration needed to bring the measured effect to its halfway point. A high value points to lower potency in that assay. Compound `C=CCOC(Cn1ccnc1)c1ccc(Cl)cc1Cl` (centres unmarked) [Imazalil (B), Imazalil] gave a concentration giving a half-maximal response (EC50) of 0.175 µg/mL (≈ 0.589 µM). In turn, `OC(Cc1ccccc1Cl)(Cn1nc[nH]c1=S)C1(Cl)CC1` (centres unmarked) [Prothioconazole (A), Prothioconazole] had a half-maximal effective concentration (EC50) of 1.37 µg/mL (≈ 3.98 µM).
